{"source": "patent US7098372B1", "about": "“Pharmaceutical compositions and methods of using secreted frizzled related protein” (Wyeth, priority 1999, dated 2006)", "key": {"hOB-01-C1-PS-09 cells [1]": {"tested_on": "hOB-01-C1-PS-09 cells", "experiment": "Alkaline phosphatase activity in hOB-01-C1-PS-09 cells", "format": "cell-based, human", "from_the_text": "(§1) Unlike the parental hOB-01-C1 cell line, the hOB-01-C1-PS-09 cells proliferate 2- to 3-times faster at the permissive temperature with a doubling time of once every 2–3 days (FIG. 22A). However, like the parental cells, the hOB-01-C1-PS-09 cells stop dividing at the non-permissive temperature (FIG. 22A). […] Alkaline phosphatase and osteocalcin are two important markers of the osteocytic lineage.\nIn addition to vitamin D3 and PTH, the hOB-01-C1-PS-09 cells also respond to additional bone-active agents: for example, glucocorticoids and transforming growth factor (TGF)-β1. Treatment of the cells with the synthetic glucocorticoid, dexamethasone, up-regulates alkaline phosphatase activity approximately 2-fold at 34° C. (FIG. 25), and this effect is once again enhanced when the cells are incubated at 39° C."}, "hOB SFRP mRNA": {"tested_on": "hOB SFRP mRNA", "experiment": "hOB SFRP mRNA levels after treatment with various agents (method not given)", "format": "cell-based, human", "settings": "for effect on hOB SFRP mRNA levels: hOB-03-C5 cells or hOB-03-CE6 cells; for effect on hOB SFRP message expression: various hOB cell lines"}, "hOB-01-C1-PS-09 cells [2]": {"tested_on": "hOB-01-C1-PS-09 cells", "experiment": "Osteocalcin secretion from hOB-01-C1-PS-09 cells", "format": "cell-based, human", "from_the_text": "as §1\nHowever, the secosteroid up-regulates production of this bone-specific matrix protein 11-fold when the cells are incubated at 39° C. It should be noted that the basal levels of alkaline phosphatase expression and osteocalcin secretion by the hOB-01-C1-PS-09 cells are similar to the parental cell line. Thus, both morphologically and biochemically, the hOB-01-C1-PS-09 cells resemble the parental hOB-01-C1 cells and are therefore a reliable in vitro model to study human pre-osteocyte biology."}, "human SARP-2": {"target": "T1, human SARP-2 (Homo sapiens, UniProt Q8N474)", "T1 construct": "endogenous in cells; host or cells: hOB-03-C5 and hOB-03-CE6 human osteoblast cell lines treated with PGE2", "T1 sequence (Q8N474 32-314)": "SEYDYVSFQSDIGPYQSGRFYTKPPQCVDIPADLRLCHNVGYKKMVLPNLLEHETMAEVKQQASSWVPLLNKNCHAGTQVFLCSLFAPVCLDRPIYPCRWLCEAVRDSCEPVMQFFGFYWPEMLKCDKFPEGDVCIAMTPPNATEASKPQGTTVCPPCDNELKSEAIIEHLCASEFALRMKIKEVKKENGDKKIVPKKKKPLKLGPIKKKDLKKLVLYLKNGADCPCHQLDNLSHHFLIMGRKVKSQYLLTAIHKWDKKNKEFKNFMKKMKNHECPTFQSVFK", "experiment": "Reversal of PGE2-accelerated hOB cell death, Coulter cell counter", "format": "cell-based", "settings": "co-treatment with PGE2, hOB-03-C5 and hOB-03-CE6 cells", "protocol": "These experiments were performed in a similar manner to the ones depicted in FIG. 10. However, for these experiments, the cells were co-treated with either vehicle control (i.e., 0.1% ethanol) or PGE2 in the absence or presence of sense (control) or antisense initiation-site directed phosphorothioate oligonucleotides to human SARP-2. The results are presented as either the % relative to the day 0 control (i.e., ˜200,000 cells per well of a 6 well plate) or as the % relative to the vehicle treated control. The results of this experiment indicate that co-treatment of the hOB cells with the antisense oligonucleotide to SARP-2 reverses the ability of PGE2 to accelerate the rate of cell death, while co-treatment with the sense (control) oligonucleotide as no effect on this process.\nThese experiments were performed in a similar manner to the ones depicted in FIG. 10. However, for these experiments, the cells were co-treated with either vehicle control (i.e., 0.1% ethanol) or PGE2 in the absence or presence of sense (control) or antisense initiation-site directed phosphorothioate oligonucleotides to human SARP-2. The results are presented as either the % relative to the day 0 control (i.e., ˜200,000 cells per well of a 6 well plate) or as the % relative to the vehicle treated control. […]"}, "Wnt signaling": {"tested_on": "Wnt signaling", "experiment": "TCF-luciferase reporter gene assay of Wnt signaling", "format": "cell-based, human", "settings": "transfected cDNA, hOB-01-C1-PS-09 or hOB-02-C1-PS-02 cells", "protocol": "SARP-2 or human Frzb-1 expression plasmids downregulates Wnt signaling (when compared to the pcDNA3.1 empty vector control) in the hOB cells as measured by the TCF-luciferase reporter gene assay. This assay is an authentic measurement of Wnt signaling and β-catenin nuclear activity.\nIn order to determine if the up-regulation of SFRP-1/FRP-1/SARP-2 gene expression results in an antagonism of the Wnt signaling pathway, hOB-03-CE6 cells were treated with PGE2 and the resulting cells probed with β-catenin monoclonal antibody. Overexpression of Wnt proteins in cells up-regulates a signaling protein known as β-catenin (reviewed in Moon et al. 1997 Cell 88: 725–728; Barth et al. 1997 Curr. Opin. Cell Biol. 9: 683–690; and Nusse 1997 Cell 89: 321–323). […] Therefore, hOB-03-CE6 cells were plated and treated with PGE2 as described in Example 1, except that total cellular protein was extracted and a Western blot analysis for β-catenin was performed using a monoclonal antibody to the protein (Transduction Laboratories) as previously described (Bodine et al. 1996 Endocrinology 137: 4592–4604; Melkonyan et al. 1997 Proc. Natl. Acad. Sci. USA 94: 13636–13641). […] Both human and rat SFRP-1/FRP-1/SARP-2, as well as human Frzb-1/FrzB/Fritz, suppressed TCF-luciferase activity in the hOB cells."}}}
{"molecule": "C[C@@H]1C[C@H]2[C@@H]3CCC4=CC(=O)C=C[C@]4(C)[C@@]3(F)[C@@H](O)C[C@]2(C)[C@@]1(O)C(=O)CO", "note": "[dexamethasone]", "values": [{"measurement": "up-regulation of alkaline phosphatase activity", "setting": "hOB-01-C1-PS-09 cells [1]; 34° C.", "result": "approximately 2 fold"}]}
{"molecule": "CC1=C(/C=C/C(C)=C/C=C/C(C)=C/C(=O)O)C(C)(C)CCC1", "note": "[all-trans-retinoic acid]", "values": [{"measurement": "effect on hOB SFRP mRNA levels", "setting": "hOB SFRP mRNA", "result": "increases"}]}
{"molecule": "interleukin (IL)-1β: interleukin (IL)-1β", "values": [{"measurement": "effect on hOB SFRP mRNA levels", "setting": "hOB SFRP mRNA", "result": "increases"}]}
{"molecule": "CC1=C(/C=C/C(C)=C\\C=C\\C(C)=C\\C(=O)O)C(C)(C)CCC1", "note": "[9-cis-retinoic acid]", "values": [{"measurement": "effect on hOB SFRP mRNA levels", "setting": "hOB SFRP mRNA", "result": "increases"}]}
{"molecule": "C[C@]12CC[C@@H]3c4ccc(O)cc4CC[C@H]3[C@@H]1CC[C@@H]2O", "note": "[17β-estradiol]", "values": [{"measurement": "effect on hOB SFRP message expression", "setting": "hOB SFRP mRNA", "result": "suppresses"}]}
{"molecule": "C=C1CC[C@H](O)C/C1=C/C=C1\\CCC[C@]2(C)[C@@H]([C@H](C)CCCC(C)C)CC[C@@H]12", "note": "[vitamin D3]", "values": [{"measurement": "enhancement of up-regulation of alkaline phosphatase activity at 39° C.", "setting": "hOB-01-C1-PS-09 cells [1]; cells incubated at 39° C.", "result": "about 4 fold"}, {"measurement": "osteocalcin secretion", "setting": "hOB-01-C1-PS-09 cells [2]; 34° C.", "result": "unable to induce"}, {"measurement": "up-regulation of osteocalcin production", "setting": "hOB-01-C1-PS-09 cells [2]; 39° C.", "result": 11, "unit": "fold"}, {"measurement": "effect on hOB SFRP message expression", "setting": "hOB SFRP mRNA", "result": "suppresses"}]}
{"molecule": "insulin-like growth factor (IGF)-I: insulin-like growth factor (IGF)-I", "values": [{"measurement": "effect on hOB SFRP message expression", "setting": "hOB SFRP mRNA", "result": "suppresses"}]}
{"molecule": "5′-GCGCCCGATGCCCATGCC-3′ (phosphorothioate, further chemistry not given here) [antisense oligonucleotide to SARP-2, antisense initiation-site directed phosphorothioate oligonucleotide to human SARP-2]", "values": [{"measurement": "effect on the ability of PGE2 to accelerate the rate of hOB cell death", "setting": "human SARP-2", "result": "reversed"}]}
{"molecule": "5′-GGCATGGGCATCGGGCGC-3′ (phosphorothioate, further chemistry not given here) [sense (control) oligonucleotide, sense (control) initiation-site directed phosphorothioate oligonucleotide to human SARP-2]", "values": [{"measurement": "effect on the ability of PGE2 to accelerate the rate of hOB cell death", "setting": "human SARP-2", "result": "no effect"}]}
{"molecule": "human Frzb-1/FrzB/Fritz: human Frzb-1 expression plasmid transfected into hOB cells (protein) AACEPVRIPLCKSLPWNMTKMPNHLHHSTQANAILAIEQFEGLLGTHCSPDLLFFLCAMYAPICTIDFQHEPIKPCKSVCERARQGCEPILIKYRHSWPENLACEELPVYDRGVCISPEAIVTADGADFPMDSSNGNCRGASSERCKCKPIRATQKTYFRNNYNYVIRAKVKEIKTKCHDVTAVVEVKEILKSSLVNIPRDTVNLYTSSGCLCPPLNVNEEYIIMGYEDEERSRLLLVEGSIAEKWKDRLGKKVKRWDMKLRHLGLSKSDSSNSDSTQSQKSGRNSNPRQARN", "values": [{"measurement": "TCF-luciferase activity", "setting": "Wnt signaling", "result": "suppressed"}]}
